In patent US10195201B2, “Heteroaryl-pyrimidinone compounds as PDE2 inhibitors” (Merck Sharp & Dohme Corp., priority 2015, dated 2019):
Like-named read-outs stand apart in the source and are kept apart here.

Key:
[1] = molecular target: Rhesus PDE2A3 (Macaca mulatta, UniProt B3VTJ2); assay: PDE2 fluorescence polarization (IMAP FP) inhibition assay, rhesus enzyme; format: biochemical, rhesus macaque
Experimental: (§1) The activity of the compounds in accordance with the present invention as PDE2 inhibitors may be readily determined using a fluorescence polarization (FP) methodology (Huang, W., et al., J. Biomol Screen, 2002, 7: 215).
In a typical experiment the PDE2 inhibitory activity of the compounds of the present invention was determined in accordance with the following experimental method. Rhesus PDE2A3 was amplified from rhesus macaque brain cDNA (Biochain Institute, Hayward, Calif.) using primers based on human PDE2A sequence (accession NM_002599.3) where the forward primer containing a Kozak consensus was 5′-[…]-3′ and the reverse primer was 5′-[…]-3′. Amplification with Easy-A High-Fidelity PCR cloning enzyme (Stratagene, La Jolla, Calif.) was 95° C. for 2 minutes followed by thirty three cycles of 95° C. for 40 seconds, 52° C. for 30 seconds, and 72° C. for 2 minutes 48 seconds. Final extension was 72° C. for 7 minutes. The PCR product was TA cloned into pcDNA3.3-TOPO (Invitrogen, Carlsbad, Calif.) according to standard protocol. A consensus sequence was developed from multiple clones and then deposited into GenBank (EU812167). AD293 cells (Stratagene, La Jolla, Calif.) with 70-80% confluency were transiently transfected with rhesus PDE2A3/pcDNA3.3-TOPO using Lipofectamine 2000 according to manufacturer specifications (Invitrogen, Carlsbad, Calif.). Cells were harvested 48 hours post-transfection and lysed by sonication (setting 3, 10×5 sec pulses) in a buffer containing 20 mM HEPES pH 7.4, 1 mM EDTA and Complete Protease Inhibitor Cocktail Tablets (Roche, Indianapolis, Ind.). Lysate was collected by centrifugation at 75,000×g for 20 minutes at 4° C. and supernatant utilized for evaluation of PDE2 activity. The fluorescence polarization assay for cyclic nucleotide phosphodiesterases was performed using an IMAP® FP kit supplied by Molecular Devices, Sunnyvale, Calif. (product # R8139). […] Assays were performed at room temperature in 384-well microtiter plates with an incubation volume of 20.2 μL. Solutions of test compounds were prepared in DMSO and serially diluted with DMSO to yield 8 μL of each of 10 solutions differing by 3-fold in concentration, at 32 serial dilutions per plate. […] 0% of inhibition is determined by using DMSO (1% final concentrations).
A Labcyte Echo 555 (Labcyte, Sunnyvale, Calif.) is used to dispense 200 nL from each well of the titration plate to the 384 well assay plate. Ten microliters of a solution of enzyme (1/2000 final dilution from aliquots; sufficient to produce 20% substrate conversion) was added to the assay plate. Next 10 uL of a separate solution of the substrate FAM-labeled cAMP (50 nM final concentration product # R7506 from Molecular Devices) and the activator cGMP (1 uM final concentration), prepared in the assay buffer (10 mM Tris HCl, pH 7.2, 10 mM MgCl2, 0.05% NaN3 0.01% Tween-20, and 1 mM DTT) was added to the assay plate and shaken to mix. The reaction is allowed to proceed at room temperature for 60 minutes. A binding solution is then made from the kit components, comprised of 80% Solution A, 20% Solution B and binding reagent at a volume of 1/600 the total binding solution. The enzymatic reaction is stopped by addition of 60 μL of the binding solution to each well of the assay plates and the plates are sealed and shaken for 30 seconds. The plate was incubated at room temperature for at least one hour prior to determining the fluorescence polarization (FP). The parallel and perpendicular fluorescence of each well of the plate was measured using a Tecan Genios Pro plate reader (Tecan, Switzerland) or Perkin Elmer EnVision™ plate reader (Waltham, Mass.). Fluorescence polarization (mP) was calculated from the parallel (S) and perpendicular (P) fluorescence of each sample well and the analogous values for the median control well, containing only substrate (So and Po), using the following equation: Polarization (mP)=1000*(S/So−P/Po)/(S/So+P/Po).

[2] = molecular target: human PDE2A1 (Homo sapiens (Human), UniProt O00408); assay: PDE2 fluorescence polarization (IMAP FP) inhibition assay, human enzyme; format: biochemical; settings: LabB; read-out: hPDE2 Ki (nM) LabB
Chain of human PDE2A1 (O00408 other isoform, or with tags, fused parts or gaps): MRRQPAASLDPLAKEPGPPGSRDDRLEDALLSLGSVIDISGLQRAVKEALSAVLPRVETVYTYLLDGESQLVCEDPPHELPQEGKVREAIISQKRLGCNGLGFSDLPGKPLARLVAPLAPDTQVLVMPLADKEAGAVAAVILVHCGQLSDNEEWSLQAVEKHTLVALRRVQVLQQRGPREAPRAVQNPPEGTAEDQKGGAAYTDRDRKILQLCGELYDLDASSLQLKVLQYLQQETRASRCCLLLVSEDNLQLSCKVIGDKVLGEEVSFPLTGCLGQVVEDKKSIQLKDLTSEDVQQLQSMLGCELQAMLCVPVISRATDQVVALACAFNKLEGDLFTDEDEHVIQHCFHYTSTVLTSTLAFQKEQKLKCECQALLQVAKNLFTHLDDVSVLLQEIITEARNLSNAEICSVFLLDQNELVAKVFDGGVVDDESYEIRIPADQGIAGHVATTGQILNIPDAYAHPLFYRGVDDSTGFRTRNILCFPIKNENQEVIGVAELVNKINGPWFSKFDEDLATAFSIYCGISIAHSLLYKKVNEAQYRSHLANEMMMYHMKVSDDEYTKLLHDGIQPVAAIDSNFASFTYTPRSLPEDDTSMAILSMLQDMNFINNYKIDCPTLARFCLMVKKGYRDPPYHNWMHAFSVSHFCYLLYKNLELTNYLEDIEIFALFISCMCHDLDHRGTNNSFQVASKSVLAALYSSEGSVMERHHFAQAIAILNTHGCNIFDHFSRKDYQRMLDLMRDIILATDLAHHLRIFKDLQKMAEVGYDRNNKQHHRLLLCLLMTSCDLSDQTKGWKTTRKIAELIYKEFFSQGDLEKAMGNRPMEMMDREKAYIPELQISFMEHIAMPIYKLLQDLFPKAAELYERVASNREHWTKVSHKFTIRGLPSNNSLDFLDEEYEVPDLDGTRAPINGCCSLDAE
Experimental: as §1
Selectivity for PDE2, as compared to other PDE families, was assessed using the IMAPR technology. Human PDE10A2 enzyme was prepared from cytosolic fractions of transiently transfected HEK cells. All other PDE's were GST Tag human enzyme expressed in insect cells and were obtained from BPS Bioscience (San Diego, Calif.): PDE1A (Cat#60010), human PDE2A1(Cat#60020), PDE3A (Cat#60030), PDE4A1A (Cat#60040), PDE5A1 (Cat#60050), PDE6C (Cat#60060), PDE7A (Cat#60070), PDE8A1 (Cat#60080), PDE9A2 (Cat#60090), PDE11A4 (Cat#60110).
Assays for PDE 1 through 11 were performed in parallel at room temperature in 384-well microtiter plates with an incubation volume of 20.2 μL. Solutions of test compounds were prepared in DMSO and serially diluted with DMSO to yield 30 μL of each of ten solutions differing by 3-fold in concentration, at 32 serial dilutions per plate. […] A Labcyte POD 810 (Labcyte, Sunnyvale, Calif.) was used to dispense 200 nL from each well of the titration plate to make eleven copies of the assay plate for each titration, one copy for each PDE enzyme. A solution of each enzyme (dilution from aliquots, sufficient to produce 20% substrate conversion) and a separate solution of FAM-labeled cAMP or FAM-labeled cGMP from Molecular Devices (Sunnyvale, Calif., product # R7506 or cGMP#R7508), at a final concentration of 50 nM were made in the assay buffer (10 mM Tris HCl, pH 7.2, 10 mM MgCl2, 0.05% NaN3 0.01% Tween-20, and 1 mM DTT). Note that the substrate for PDE2 is 50 nM FAM cAMP containing 1000 nM of cGMP. The enzyme and the substrate were then added to the assay plates in two consecutive additions of 10 μL and then shaken to mix. The reaction was allowed to proceed at room temperature for 60 minutes. A binding solution was then made from the kit components, comprised of 80% Solution A, 20% Solution B and binding reagent at a volume of 1/600 the total binding solution. The enzymatic reaction was stopped by addition of 60 μL of the binding solution to each well of the assay plate. The plates were sealed and shaken for 10 seconds. The plates were incubated at room temperature for one hour, then the parallel and perpendicular fluorescence was measured using a Tecan Genios Pro plate reader (Tecan, Switzerland). The apparent inhibition constants for the compounds against all 11 PDE's was determined from the parallel and perpendicular fluorescent readings as described for PDE10 FP assay using the following apparent KM values for each enzyme and substrate combination: PDE1A (FAM cGMP) 70 nM, human PDE2A1 (FAM cAMP) 10,000 nM, PDE3A (FAM cAMP) 50 nM, PDE4A1A (FAM cAMP) 1500 nM, PDE5A1 (FAM cGMP) 400 nM, PDE6C (FAM cGMP) 700 nM, PDE7A (FAM cAMP) 150 nM, PDE8A1 (FAM cAMP) 50 nM, PDE9A2 (FAM cGMP) 60 nM, […] (FAM cAMP) 150 nM, PDE11A4 (FAM cAMP) 1000 nM. The intrinsic PDE2 inhibitory activity of a compound which may be used in accordance with the present invention may be determined by these assays. […]

[3] = LabA, read-out: rhPDE2 Ki (nM) LabA
[4] = LabB, read-out: rhPDE2 Ki (nM) LabB

Chain of Rhesus PDE2A3 (B3VTJ2 1-941): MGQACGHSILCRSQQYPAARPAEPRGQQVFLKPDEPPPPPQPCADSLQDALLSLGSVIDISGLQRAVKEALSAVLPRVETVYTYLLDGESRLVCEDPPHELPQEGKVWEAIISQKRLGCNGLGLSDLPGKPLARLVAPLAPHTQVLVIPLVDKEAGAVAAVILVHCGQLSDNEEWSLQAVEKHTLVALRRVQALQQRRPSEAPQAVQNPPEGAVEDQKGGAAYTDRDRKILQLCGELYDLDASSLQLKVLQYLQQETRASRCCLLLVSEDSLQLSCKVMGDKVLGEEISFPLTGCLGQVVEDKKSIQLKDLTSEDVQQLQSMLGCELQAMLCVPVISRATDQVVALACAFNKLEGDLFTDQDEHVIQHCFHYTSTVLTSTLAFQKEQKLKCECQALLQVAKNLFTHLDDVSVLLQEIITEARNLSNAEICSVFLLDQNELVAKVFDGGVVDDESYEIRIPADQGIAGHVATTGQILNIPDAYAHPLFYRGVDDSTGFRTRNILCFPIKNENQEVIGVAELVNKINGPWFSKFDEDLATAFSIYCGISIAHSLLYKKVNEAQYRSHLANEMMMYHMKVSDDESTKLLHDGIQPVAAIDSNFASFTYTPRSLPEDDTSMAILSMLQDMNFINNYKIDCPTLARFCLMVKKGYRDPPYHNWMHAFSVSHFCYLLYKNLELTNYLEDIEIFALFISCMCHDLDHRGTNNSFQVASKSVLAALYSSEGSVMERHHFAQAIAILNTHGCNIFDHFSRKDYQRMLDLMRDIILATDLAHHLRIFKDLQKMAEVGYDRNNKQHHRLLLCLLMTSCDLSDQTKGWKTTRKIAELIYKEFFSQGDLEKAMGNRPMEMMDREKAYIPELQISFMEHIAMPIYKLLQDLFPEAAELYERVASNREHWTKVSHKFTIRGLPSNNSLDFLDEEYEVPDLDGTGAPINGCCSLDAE

Row | SMILES | Ki [1, 3] [nM] | Ki [2] [nM] | Ki [1, 4] [nM]
1 | Cc1nc(-c2nc(C(C)c3ccc(C(F)(F)F)cc3)cs2)cc(=O)[nH]1 (stereo not shown) [Example 3, 2-Methyl-6-(4-(1-(4-(trifluoromethyl)phenyl)ethyl)thiazol-2-yl)pyrimidin-4(3H)-one] | 532 |  | 
2 | Cc1nc(-c2cc(C(C)c3ccc(OC(F)(F)F)c(F)c3)ncn2)cc(=O)[nH]1 (single isomer, unassigned) [Example 40, (R)- or (S)-6′-(1-(3-fluoro-4-(trifluoro-methoxy)phenyl)ethyl)-2-methyl-[4,4′-bipyrimidin]-6(1H)-one] |  | 1.8 | 
3 | Cc1nc(-c2nc(C(C)c3ccc(C(F)(F)F)cc3)no2)cc(=O)[nH]1 (stereo not shown) [Example 12, 2-Methyl-6-(3-(1-(4-(trifluoromethyl)phenyl)ethyl)-1,2,4-oxadiazol-5-yl)pyrimidin-4(3H)-one] | 1870 |  | 2410
4 | Cc1nc(-c2ccnc(C(C)c3ccc(C(F)(F)F)cc3)c2)cc(=O)[nH]1 (stereo not shown) [Example 27, 2-Methyl-6-(2-(1-(4-(trifluoromethyl)phenyl)ethyl)pyridin-4-yl)pyrimidin-4(3H)-one] | 1270 |  | 
5 | Cc1nc(-c2ccnc(C(C)(O)c3ccc(C(F)(F)F)cc3)c2)cc(=O)[nH]1 (stereo not shown) [Example 28, 6-(2-(1-hydroxy-1-(4-(trifluoromethyl)phenyl)ethyl)pyridin-4-yl)-2-methylpyrimidin-4(3H)-one] | 2880 |  | 
6 | Cc1nc(-c2cc(C(C)c3ccc(C(F)(F)F)cc3)ccn2)cc(=O)[nH]1 (stereo not shown) [Example 22, 2-methyl-6-(4-(1-(4-(trifluoromethyl)phenyl)ethyl)pyridin-2-yl)pyrimidin-4(3H)-one] | 920 |  | 868
7 | Cc1nc(-c2cncc(C(O)c3ccc(C(F)(F)F)cc3)c2)cc(=O)[nH]1 (stereo not shown) [Example 25, 6-(5-(Hydroxy(4-(trifluoromethyl)phenyl)methyl)pyridin-3-yl)-2-methylpyrimidin-4(3H)-one] | 12900 |  | 
8 | Cc1nc(-c2cc(C(C)c3ccc(C(F)F)c(F)c3)ncn2)cc(=O)[nH]1 (single isomer, unassigned) [Example 38, (R)- or (S)-6′-(1-(4-(difluoro-methyl)-3-fluoro-phenyl)ethyl)-2-methyl-[4,4′-bipyrimidin]-6(1H)-one] |  | 30 | 
9 | Cc1nc(-c2cn([C@H](C)c3ccc(C(F)(F)F)cc3F)cn2)cc(=O)[nH]1 (single isomer, unassigned) [Example 14] | 298 |  | 
10 | Cc1nc(-c2cn(C(C)c3ccc(C(F)(F)F)cc3)cn2)cc(=O)[nH]1 (single isomer, unassigned) [Example 16, (R)- or (S)-2-methyl-6-(1-(1-(4-(trifluoro-methyl)phenyl)ethyl)-1H-imidazol-4-yl) pyrimidin-4 (3H)-one] | 340 |  | 
11 | Cc1nc(-c2noc(C(C)c3ccc(C(F)(F)F)cc3)n2)cc(=O)[nH]1 (stereo not shown) [Example 11, 2-Methyl-6-(5-(1-(4-(trifluoromethyl)phenyl)ethyl)-1,2,4-oxadiazol-3-yl)pyrimidin-4(3H)-one] | 1080 |  | 1750
12 | Cc1nc(-c2cncc(C(C)c3ccc(C(F)(F)F)cc3)n2)cc(=O)[nH]1 (stereo not shown) [Example 29, 2-Methyl-6-(6-(1-(4-(trifluoromethyl)phenyl)ethyl)pyrazin-2-yl)pyrimidin-4(3H)-one] | 1710 |  | 1660
13 | Cc1nc(-c2cncc(C(C)(O)c3ccc(C(F)(F)F)cc3)c2)cc(=O)[nH]1 (stereo not shown) [Example 26, 6-(5-(1-Hydroxy-1-(4-(trifluoromethyl)phenyl)ethyl)pyridin-3-yl)-2-methylpyrimidin-4(3H)-one] | 1810 |  | 
14 | Cc1nc(-c2ncc(C(C)c3ccc(C(F)(F)F)cc3)[nH]2)cc(=O)[nH]1 (stereo not shown) [Example 13, 2-Methyl-6-(5-(1-(4-(trifluoromethyl)phenyl)ethyl)-1H-imidazol-2-yl)pyrimidin-4(3H)-one] | 868 |  | 631
15 | Cc1nc(-c2nnc([C@H](C)c3ccc(C(F)(F)F)cc3)o2)cc(=O)[nH]1 (single isomer, unassigned) [Example 10] | 470 |  | 699
16 | CCC(c1ccc(C(F)(F)F)cc1F)n1cnc(-c2cc(=O)[nH]c(C)n2)c1 (stereo not shown) [Example 20, 6-(1-(1-(2-Fluoro-4-(trifluoromethyl)phenyl)propyl)-1H-imidazol-4-yl)-2-methylpyrimidin-4(3H)-one] |  |  | 123
17 | Cc1nc(-c2cncc([C@@H](C)c3ccc(C(F)(F)F)cc3)c2)cc(=O)[nH]1 (single isomer, unassigned) [Example 24] | 826 |  | 
18 | Cc1nc(-c2cncc([C@@H](C)c3ccc(C(F)(F)F)cc3)c2)cc(=O)[nH]1 (single isomer, unassigned) [Example 23] | > 1000 |  | 
19 | Cc1nc(-c2cn(C(c3ccc(C(F)(F)F)cc3F)C(C)C)cn2)cc(=O)[nH]1 (stereo not shown) [Example 21, 6-(1-(1-(2-Fluoro-4-(trifluoromethyl)phenyl)-2-methylpropyl)-1H-imidazol-4-yl)-2-methylpyrimidin-4(3H)-one] |  |  | 110
